Mutagenic call data for 8 compounds are collected here from PubChem BioAssay AID1259407 (Chemical Carcinogenesis Research Information System (CCRIS), 2018).

Active and inactive are the calls of the source. How the calls were made is not given here.

In this data set the test system is CCRIS mutagenicity, Ames/micronucleus/aberration tests. Put plainly: CCRIS mutagenicity studies.
[1] abbreviates: Test System: AMES SALMONELLA TYPHIMURIUM, Strain/Indicator: TA98, Metabolic Activation: NONE, Method: STANDARD PLATE.
Where [2] appears, read: Test System: AMES SALMONELLA TYPHIMURIUM, Strain/Indicator: TA98, Metabolic Activation: RAT, LIVER, S-9, AROCLOR 1254, Method: STANDARD PLATE.
Setting [3] is: Test System: AMES SALMONELLA TYPHIMURIUM, Strain/Indicator: TA100, Metabolic Activation: NONE, Method: STANDARD PLATE.
Setting [4] is: Test System: AMES SALMONELLA TYPHIMURIUM, Strain/Indicator: TA100, Metabolic Activation: RAT, LIVER, S-9, AROCLOR 1254, Method: STANDARD PLATE.
Where [5] appears, read: Test System: AMES SALMONELLA TYPHIMURIUM, Strain/Indicator: TA1538, Metabolic Activation: NONE, Method: STANDARD PLATE.
The mark [6] stands for this setting: Test System: AMES SALMONELLA TYPHIMURIUM, Strain/Indicator: TA1538, Metabolic Activation: RAT, LIVER, S-9, AROCLOR 1254, Method: STANDARD PLATE.

In the case of `CCCC(O)C(CC)CO` (configuration not stated), the mutagenic call runs as follows: (Test System: AMES SALMONELLA TYPHIMURIUM, Strain/Indicator: TA98, Metabolic Activation: HAMSTER, LIVER, S-9, AROCLOR 1254, Method: STANDARD PLATE) “inactive; negative”; under setting [1], “inactive; negative”; under setting [2], “inactive; negative”; (Test System: AMES SALMONELLA TYPHIMURIUM, Strain/Indicator: TA100, Metabolic Activation: HAMSTER, LIVER, S-9, AROCLOR 1254, Method: STANDARD PLATE) “inactive; negative”; under setting [3], “inactive; negative”; under setting [4], “inactive; negative”. In addition, the mutagenic call is, setting by setting: (Test System: AMES SALMONELLA TYPHIMURIUM, Strain/Indicator: TA1535, Metabolic Activation: HAMSTER, LIVER, S-9, AROCLOR 1254, Method: STANDARD PLATE) “inactive; negative”; (Test System: AMES SALMONELLA TYPHIMURIUM, Strain/Indicator: TA1535, Metabolic Activation: NONE, Method: STANDARD PLATE) “inactive; negative”; (Test System: AMES SALMONELLA TYPHIMURIUM, Strain/Indicator: TA1535, Metabolic Activation: RAT, LIVER, S-9, AROCLOR 1254, Method: STANDARD PLATE) “inactive; negative”; (Test System: AMES SALMONELLA TYPHIMURIUM, Strain/Indicator: TA1537, Metabolic Activation: HAMSTER, LIVER, S-9, AROCLOR 1254, Method: STANDARD PLATE) “inactive; negative”; (Test System: AMES SALMONELLA TYPHIMURIUM, Strain/Indicator: TA1537, Metabolic Activation: NONE, Method: STANDARD PLATE) “inactive; negative”; (Test System: AMES SALMONELLA TYPHIMURIUM, Strain/Indicator: TA1538, Metabolic Activation: HAMSTER, LIVER, S-9, AROCLOR 1254, Method: STANDARD PLATE) “inactive; negative”. In addition, the mutagenic call under setting [5] is “inactive; negative”; the mutagenic call under setting [6] was “inactive; negative”; the mutagenic call (Test System: MOUSE LYMPHOMA, Strain/Indicator: L5178Y (TK+/TK-), Metabolic Activation: NONE, Method: SUSPENSION/PLATE) was “inactive; positive. reevaluation of results: negative”; the mutagenic call (Test System: MOUSE LYMPHOMA, Strain/Indicator: L5178Y (TK+/TK-), Metabolic Activation: RAT, LIVER, S-9, AROCLOR 1254, Method: SUSPENSION/PLATE) was “inactive; negative. reevaluation of results: negative”.

Consider `CS(=O)(=O)OCCCNCCCOS(C)(=O)=O`, for which the mutagenic call by setting is: (Test System: AMES SALMONELLA TYPHIMURIUM, Strain/Indicator: TA98, Metabolic Activation: S-9, Method: STANDARD PLATE) “inactive; negative”; (Test System: AMES SALMONELLA TYPHIMURIUM, Strain/Indicator: TA100, Metabolic Activation: S-9, Method: STANDARD PLATE) “inactive; negative”; (Test System: AMES SALMONELLA TYPHIMURIUM, Strain/Indicator: TA102, Metabolic Activation: S-9, Method: STANDARD PLATE) “inactive; negative”; (Test System: AMES SALMONELLA TYPHIMURIUM, Strain/Indicator: TA1537, Metabolic Activation: S-9, Method: STANDARD PLATE) “active; positive”; (Test System: E. COLI, Strain/Indicator: WP2 (HCR), Metabolic Activation: S-9, Method: STANDARD PLATE) “active; positive”.

For `c1ccc(-c2cccnc2)nc1`, the mutagenic call is, setting by setting: (Test System: AMES SALMONELLA TYPHIMURIUM, Strain/Indicator: TA97, Metabolic Activation: RAT, LIVER, S-9, PHENOBARBITAL, Method: STANDARD PLATE) “active; positive”; (Test System: AMES SALMONELLA TYPHIMURIUM, Strain/Indicator: TA97, Metabolic Activation: RAT, LIVER, S-9, SODIUM PHENOBARBITAL, Method: PREINCUBATION) “active; positive”; (Test System: AMES SALMONELLA TYPHIMURIUM, Strain/Indicator: TA98, Metabolic Activation: RAT, LIVER, S-9, PHENOBARBITAL, Method: STANDARD PLATE) “inactive; negative”; (Test System: AMES SALMONELLA TYPHIMURIUM, Strain/Indicator: TA100, Metabolic Activation: RAT, LIVER, S-9, PHENOBARBITAL, Method: STANDARD PLATE) “inactive; negative”; (Test System: AMES SALMONELLA TYPHIMURIUM, Strain/Indicator: TA100, Metabolic Activation: RAT, LIVER, S-9, SODIUM PHENOBARBITAL, Method: PREINCUBATION) “active; positive”; (Test System: AMES SALMONELLA TYPHIMURIUM, Strain/Indicator: TA1535, Metabolic Activation: RAT, LIVER, S-9, PHENOBARBITAL, Method: STANDARD PLATE) “inactive; negative”. The mutagenic call runs as follows: (Test System: AMES SALMONELLA TYPHIMURIUM, Strain/Indicator: TA1537, Metabolic Activation: RAT, LIVER, S-9, PHENOBARBITAL, Method: STANDARD PLATE) “active; positive”; (Test System: AMES SALMONELLA TYPHIMURIUM, Strain/Indicator: TA1538, Metabolic Activation: RAT, LIVER, S-9, PHENOBARBITAL, Method: STANDARD PLATE) “inactive; negative”.

Turning to `COc1cc(N=Nc2ccccc2)ccc1N=Nc1c(S(=O)(=O)O)cc2ccc(N)cc2c1O`, the mutagenic call by setting is: under setting [1], “inactive; negative”; under setting [2], “active; positive”; under setting [3], “inactive; negative”; under setting [4], “active; positive”; under setting [5], “inactive; negative”; under setting [6], “active; positive”.

As to `CC(=O)N(C(C)=O)c1cc(N=Nc2ccc(C)cc2)ccc1C`, the mutagenic call (Test System: AMES SALMONELLA TYPHIMURIUM, Strain/Indicator: TA98, Metabolic Activation: NONE, Method: SUSPENSION/PLATE) is “inactive; negative”; the mutagenic call (Test System: AMES SALMONELLA TYPHIMURIUM, Strain/Indicator: TA98, Metabolic Activation: RAT, LIVER, S-9, PHENOBARBITAL AND 5,6-BENZOFLAVONE, Method: SUSPENSION/PLATE) is “inactive; negative”; the mutagenic call (Test System: AMES SALMONELLA TYPHIMURIUM, Strain/Indicator: TA100, Metabolic Activation: NONE, Method: SUSPENSION/PLATE) was “inactive; negative”; the mutagenic call (Test System: AMES SALMONELLA TYPHIMURIUM, Strain/Indicator: TA100, Metabolic Activation: RAT, LIVER, S-9, PHENOBARBITAL AND 5,6-BENZOFLAVONE, Method: SUSPENSION/PLATE) is “inactive; negative”.

Consider `CCC(=O)CN(CC(=O)CC)N=O`, for which the mutagenic call (Test System: CHINESE HAMSTER V-79, Strain/Indicator: V-79/OUABAIN, Metabolic Activation: HAMSTER, HEPATOCYTES, Method: CELL-MEDIATED) was “active; positive”.

`OCC(O)CI` (configuration not stated): the mutagenic call was “inactive; negative” (Test System: AMES SALMONELLA TYPHIMURIUM, Strain/Indicator: TA98, Metabolic Activation: HAMSTER, LIVER, S-9, AROCLOR 1254 (30%), Method: PREINCUBATION); “inactive; negative” (Test System: AMES SALMONELLA TYPHIMURIUM, Strain/Indicator: TA98, Metabolic Activation: NONE, Method: PREINCUBATION); “inactive; negative” (Test System: AMES SALMONELLA TYPHIMURIUM, Strain/Indicator: TA98, Metabolic Activation: RAT, LIVER, S-9, AROCLOR 1254 (30%), Method: PREINCUBATION); “active; positive” (Test System: AMES SALMONELLA TYPHIMURIUM, Strain/Indicator: TA100, Metabolic Activation: HAMSTER, LIVER, S-9, AROCLOR 1254 (30%), Method: PREINCUBATION); “active; positive” (Test System: AMES SALMONELLA TYPHIMURIUM, Strain/Indicator: TA100, Metabolic Activation: NONE, Method: PREINCUBATION); “active; positive” (Test System: AMES SALMONELLA TYPHIMURIUM, Strain/Indicator: TA100, Metabolic Activation: RAT, LIVER, S-9, AROCLOR 1254 (30%), Method: PREINCUBATION).

`O=C(c1ccc(O)cc1)c1ccc(O)cc1`: the mutagenic call (End Point: In vitro micronucleus, Test System: HepG2 cells, Metabolic Activation: None) is “inactive; negative”.
